How the values were obtained:
Mus musculus [1] = assay: Post treatment immobility time for CNS study using Porsolt's swimpool test at a dose of 100 mg/Kg after 1 h when given i.p., in mice (No. of animals 6); Control (24h before) 190
Rattus norvegicus [2] = assay: Seizure score before administration in rat 2 at dose 130 mg/Kg when given i.p., upon preliminary hippocampal-kindling screen; format: functional, Hippocampus
Rattus norvegicus [3] = assay: Seizure score before administration in rat 1 at dose 130 mg/Kg when given i.p., upon preliminary hippocampal-kindling screen; format: functional, Hippocampus
Mus musculus [4] = assay: Minimum dose required for anticonvulsant activity when given i.p., at 0.5 hr in mice upon subcutaneous strychnine seizure; format: functional
Rattus norvegicus [5] = assay: Number of rats protected at a dose of 30 mg/Kg when given oral at 0.5 hr upon maximal electroshock seizure; Total number of rats = 4; format: functional
Rattus norvegicus [6] = assay: Enzymatic activity to assess the increase in level of SGOT at a dose of 30 mg/Kg for 14 days when given p.o., in 6 rats; Control 73.1; format: functional
Mus musculus [7] = assay: Minimum dose required for anticonvulsant activity when given i.p., at 2 hr in mice upon subcutaneous strychnine seizure; format: functional
Rattus norvegicus [8] = assay: Number of rats protected at a dose of 30 mg/Kg when given oral at 0.25 hr upon maximal electroshock seizure; Total number of rats = 4; format: functional
Mus musculus [9] = assay: Minimum dose required for anticonvulsant activity when given i.p., at 4 hr in mice upon maximal electroshock seizure; format: functional
Rattus norvegicus [10] = assay: Effect on GABA level in rat whole brain concentration after 2 hr post-treatment at a dose of 100 mg/Kg when given i.p.; Control 48.4; format: functional
Mus musculus [11] = assay: Post treatment activity score for CNS study using a actophotometer at a dose of 100 mg/Kg after 0.5 hr when given i.p., in mice (No. of animals 6); Control (24h before) 217
Rattus norvegicus [12] = assay: Seizure score after administration in rat 1 at dose 130 mg/Kg when given i.p., upon preliminary hippocampal-kindling screen; format: functional, Hippocampus
Rattus norvegicus [13] = assay: Effective dose required for anticonvulsant activity when given orally at 4 h in rat upon maximal electroshock seizure; format: functional; conditions: po
Rattus norvegicus [14] = assay: Effect on GABA level in rat whole brain concentration after 7 days post-treatment at a dose of 30 mg/Kg when given orally; Control 50.5; format: functional
Rattus norvegicus [15] = species: Rattus norvegicus; assay: Protective index between effective dose and toxic dose in rat; format: functional
Mus musculus [16] = assay: Post treatment activity score for CNS study using a actophotometer at a dose of 100 mg/Kg after 1 hr when given i.p., in mice (No. of animals 6); Control (24h before) 217
Rattus norvegicus [17] = species: Rattus norvegicus; assay: Ex vitro percentage inhibition activity against GABA-T enzyme at a concentration of 2.5 uM after 4.5 h; format: functional
Rattus norvegicus [18] = assay: Number of rats protected at a dose of 30 mg/Kg when given oral at 1 hr upon maximal electroshock seizure; Total number of rats = 4; format: functional
Rattus norvegicus [19] = assay: Number of rats protected at a dose of 30 mg/Kg when given oral at 4 hr upon maximal electroshock seizure; Total number of rats = 4; format: functional
Rattus norvegicus [20] = species: Rattus norvegicus; assay: Ex vitro percentage inhibition activity against GABA-T enzyme at a concentration of 2.5 uM after 6 h; format: functional
Rattus norvegicus [21] = assay: After discharge duration time when after administered in rat 2 at dose 130 mg/Kg when given i.p., upon preliminary hippocampal-kindling screen; format: functional, Hippocampus
[22] = biological target: 4-aminobutyrate aminotransferase, mitochondrial (Rattus norvegicus) (UniProt P50554); assay: In vitro percentage inhibition activity against GABA-T enzyme at a concentration of 1.25 uM after 4.5 h
Mus musculus [23] = assay: Minimum dose required for anticonvulsant activity when given i.p., at 0.5 hr in mice upon maximal electroshock seizure; format: functional
Rattus norvegicus [24] = assay: After discharge duration time when before administered in rat 2 at dose 130 mg/Kg when given i.p., upon preliminary hippocampal-kindling screen; Prodrug time 30-39 s; format: functional, Hippocampus
Rattus norvegicus [25] = assay: After discharge duration time when before administered in rat 1 at dose 130 mg/Kg when given i.p., upon preliminary hippocampal-kindling screen; Prodrug time 26-39 s; format: functional, Hippocampus
Rattus norvegicus [26] = species: Rattus norvegicus; assay: Ex vitro percentage inhibition activity against GABA-T enzyme at a concentration of 2.5 uM after 3 h; format: functional
Rattus norvegicus [27] = assay: Enzymatic activity to assess the increase in level of SGPT at a dose of 30 mg/Kg for 14 days when given p.o., in 6 rats; Control 45.0; format: functional
Rattus norvegicus [28] = assay: Toxic dose observed for anticonvulsant activity when given orally at 4 h in rat upon neurotoxicity seizure; format: functional; conditions: po
Rattus norvegicus [29] = assay: Seizure score after administration in rat 2 at dose 130 mg/Kg when given i.p., upon preliminary hippocampal-kindling screen; format: functional, Hippocampus
Rattus norvegicus [30] = assay: Number of rats protected at a dose of 30 mg/Kg when given oral at 2 hr upon maximal electroshock seizure; Total number of rats = 4; format: functional
Mus musculus [31] = assay: Minimum dose required for anticonvulsant activity when given i.p., at 0.5 hr in mice upon subcutaneous pentylenetetrazole seizure; format: functional
Rattus norvegicus [32] = assay: After discharge duration time when after administered in rat 1 at dose 130 mg/Kg when given i.p., upon preliminary hippocampal-kindling screen; format: functional, Hippocampus
[33] = biological target: 4-aminobutyrate aminotransferase, mitochondrial (Rattus norvegicus) (UniProt P50554); assay: In vitro percentage inhibition activity against GABA-T enzyme at a concentration of 1.25 uM after 3 h
[34] = biological target: 4-aminobutyrate aminotransferase, mitochondrial (Rattus norvegicus) (UniProt P50554); assay: In vitro percentage inhibition activity against GABA-T enzyme at a concentration of 1.25 uM after 6 h

Sequence of 4-aminobutyrate aminotransferase, mitochondrial (Rattus norvegicus) (P50554 28-500 limits assumed): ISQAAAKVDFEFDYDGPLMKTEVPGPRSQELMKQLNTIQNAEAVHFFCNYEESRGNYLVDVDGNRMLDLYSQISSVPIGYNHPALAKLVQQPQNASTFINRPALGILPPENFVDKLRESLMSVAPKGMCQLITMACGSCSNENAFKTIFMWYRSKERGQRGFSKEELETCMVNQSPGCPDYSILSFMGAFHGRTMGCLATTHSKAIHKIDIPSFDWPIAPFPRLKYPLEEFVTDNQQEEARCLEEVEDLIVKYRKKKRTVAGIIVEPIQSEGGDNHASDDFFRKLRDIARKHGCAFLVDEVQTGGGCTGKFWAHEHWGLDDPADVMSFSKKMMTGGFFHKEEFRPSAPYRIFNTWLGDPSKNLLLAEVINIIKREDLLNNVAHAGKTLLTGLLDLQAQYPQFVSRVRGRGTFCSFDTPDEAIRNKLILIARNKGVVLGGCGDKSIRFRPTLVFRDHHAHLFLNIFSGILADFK

## Cc1cccc(C)c1NC(=O)N/N=C/c1ccccc1O
Mus musculus [1]
  Activity: 191
Rattus norvegicus [2]
  Score: 5
Rattus norvegicus [3]
  Score: 5
Mus musculus [4]
  STY seizure: 30 mg/kg
Rattus norvegicus [5]
  Activity: 3
Rattus norvegicus [6]
  SGOT activity: 64.8 units/mL
Mus musculus [7]
  STY seizure: 100 mg/kg
Rattus norvegicus [8]
  Activity: 1
Mus musculus [9]
  MES: 300 mg/kg
Rattus norvegicus [10]
  Activity: 92.1 ug/100mg of tissue
Mus musculus [11]
  Activity: 155
Rattus norvegicus [12]
  Score: 1
Rattus norvegicus [13]
  ED50: 19.8 mg/kg
Rattus norvegicus [14]
  Activity: 110 ug/100mg of tissue
Rattus norvegicus [15]
  PI: >25.1
Mus musculus [16]
  Activity: 135
Rattus norvegicus [17]
  Inhibition: 43%
Rattus norvegicus [18]
  Activity: 3
Rattus norvegicus [19]
  Activity: 4
Rattus norvegicus [20]
  Inhibition: 0%
Rattus norvegicus [21]
  ADD: 25 s
[22]
  inhibition: 0%
Mus musculus [23]
  MES: 100 mg/kg
Rattus norvegicus [24]
  ADD: 39 s
Rattus norvegicus [25]
  ADD: 39 s
Rattus norvegicus [26]
  Inhibition: 90%
Rattus norvegicus [27]
  SGPT activity: 43.3 units/mL
Rattus norvegicus [28]
  TD50: > 500 mg/kg
Rattus norvegicus [29]
  Score: 1
Rattus norvegicus [30]
  Activity: 4
Mus musculus [31]
  PTZ seizure: 300 mg/kg
Rattus norvegicus [32]
  ADD: 59 s
[33]
  inhibition: 58%
[34]
  inhibition: 9%

From ChEMBL document CHEMBL1141099, “Discovery of N-(2,6-dimethylphenyl)-substituted semicarbazones as anticonvulsants: hybrid pharmacophore-based design” (2005)
